Laboratory results as given in patent US20130303768A1, “METHOD AND SUBSTANCES FOR PREPARATION OF N-SUBSTITUTED PYRIDINIUM COMPOUNDS” (ROCHE DIAGNOSTICS OPERATIONS, INC., priority 2011, published 2013).

What was measured:
[1] = test system: GlucDH mut 2; assay: Enzymatic reduction of Acetyl-cNAD by GlucDH mut 2 with glucose; type: biochemical; details: 25° C., Tris-buffer pH 8.5, glucose, UV/VIS spectra after 30 min
Description: Acetyl-cNADH and for comparison cNAD, cNADP were reduced by using GlucDH mut 2 (WO2010/094632) using the following conditions:
A Dilution buffer (NaCl 0.2 mol/l; Tris 0.1 mol/l; pH 8.5) was prepared as follows: 11.7 g NaCl and 12.1 g Tris (=[…]) were dissolved in 900 ml bidest. water and the pH was adjusted to pH 8.5 by addition of HCL 1N and filled to 1.00 l with bidest. Water.
Glucose-solution: 2.00 g D(+)-Glucose-Monohydrate were dissolved in 10.0 ml bidest. water. The solution is ready for usage after 2 h at room temperature.
GlucDH2-stock-solution: 10.0 mg of the enzyme (Lyo) were dissolved in 1.00 ml Tris-buffer.
Reduction of Acetyl-cNAD-solution (15 mmol/l): 9.90 mg Acetyl-cNAD (Mw=659.47 g/mol) were dissolved in 1.00 ml bidest. water.
100 μl GlucDH2-stock-solution were dissolved in 0.90 ml dilution buffer (dilution factor=10).
1. The tempered (25° C.) reagent solutions were pipetted into a 1 cm plastic cuvette as follows:
(§1) After mixing and tempering to 25° C., the reaction was started by addition of 0.05 ml the above mentioned corresponding GlucDH2-solutions. An UV/VIS spectra was recorded after 30 min.

[2] = UV/VIS absorption spectrum after enzymatic reduction; type: physicochemical; details: FIG. 1, reduced form
Description: as §1
This is a significant advantage for redox-based assays, since it allows to reduce or avoid the interference from auto-fluorescent compounds comprised in (biological) samples

| Compound | coenzyme function for a dehydrogenase [1] | absorption maximum [2] |
| --- | --- | --- |
| CC(=O)c1ccc[n+]([C@@H]2C[C@H](COP(=O)([O-])OP(=O)(O)OC[C@H]3O[C@@H](n4cnc5c(N)ncnc54)[C@H](O)[C@@H]3O)[C@@H](O)[C@H]2O)c1 [Acetyl-cNAD] | serves as a coenzyme for a dehyrogenase |  |
| Acetyl-cNADH |  | about 380 nm |
